Experimental data published in patent US20210040062A1, “AZOLE-SUBSTITUTED PYRIDINE COMPOUND” (TAISHO PHARMACEUTICAL CO., LTD., priority 2016, published 2021).

Legend:
human CYP4F2 = biological target: T1, human CYP4F2 (Homo sapiens, UniProt P78329); test: CYP4F2 inhibition test (Test Example 1); assay type: biochemical; details: Escherichia coli membrane fraction expressing human CYP4F2, 2.5 μM luciferine derivative, room temperature 60 minutes, luminescence
T1 construct: host or cells: Escherichia coli (membrane fraction)
T1 sequence (P78329 5-520): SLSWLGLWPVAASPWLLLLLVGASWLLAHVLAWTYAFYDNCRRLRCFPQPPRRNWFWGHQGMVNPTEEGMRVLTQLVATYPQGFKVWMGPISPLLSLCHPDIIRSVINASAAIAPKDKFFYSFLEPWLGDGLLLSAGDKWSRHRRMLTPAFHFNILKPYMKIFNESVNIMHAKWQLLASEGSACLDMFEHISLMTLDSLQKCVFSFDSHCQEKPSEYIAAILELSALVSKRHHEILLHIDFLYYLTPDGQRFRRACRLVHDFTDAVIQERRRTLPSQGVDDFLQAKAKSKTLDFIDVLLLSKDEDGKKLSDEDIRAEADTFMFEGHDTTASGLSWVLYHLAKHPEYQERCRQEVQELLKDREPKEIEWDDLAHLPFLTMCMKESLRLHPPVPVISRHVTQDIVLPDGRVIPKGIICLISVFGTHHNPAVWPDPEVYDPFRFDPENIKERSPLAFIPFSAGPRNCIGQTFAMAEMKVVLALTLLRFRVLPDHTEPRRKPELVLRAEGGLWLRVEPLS
Method: (§1) (1) Inhibition Test for Each Compound of the Present Invention Against 20-HETE Producing Enzymes (CYP4F2 and CYP4A11)
(§2) In the CYP4F2 inhibition test, the reaction solution containing each compound [final concentration of 50 mM, KPO4 (pH 7.4), 2.5 μM, luciferine derivative and 1 mM NADPH] was added to an Escherichia coli membrane fraction (100 μg/mL, protein) in which human CYP4F2 had been expressed. In the CYP4A11 inhibition test, the reaction solution containing each compound [final concentration of 100 mM, Tris-HCl (pH 7.5), 60 μM, luciferine derivative, 1.3 mM NADP^+, 3.3 mM Glucose 6-Phosphate, 3.3 mM MgCl2 and 0.4 U/mL Glucose 6-Phosphate dehydrogenase] was added to an Escherichia coli membrane fraction (100 μg/mL, protein) in which human CYP4A11 had been expressed. Following this, the membrane fraction was left to stand at room temperature for 60 minutes to perform an enzymatic reaction. After the reaction, a luciferine detection reagent was added, and the luminescence value was measured using a plate reader.
(§3) A: Luminescence value with addition of compound
(§4) B: Luminescence value without addition of compound and enzyme
(§5) C: Luminescence value without addition of compound

human CYP4A11 = biological target: T2, human CYP4A11 (Homo sapiens, UniProt Q02928); test: CYP4A11 inhibition test (Test Example 1); assay type: biochemical; details: Escherichia coli membrane fraction expressing human CYP4A11, 60 μM luciferine derivative, room temperature 60 minutes, luminescence
T2 construct: host or cells: Escherichia coli (membrane fraction)
T2 sequence (Q02928 5-519): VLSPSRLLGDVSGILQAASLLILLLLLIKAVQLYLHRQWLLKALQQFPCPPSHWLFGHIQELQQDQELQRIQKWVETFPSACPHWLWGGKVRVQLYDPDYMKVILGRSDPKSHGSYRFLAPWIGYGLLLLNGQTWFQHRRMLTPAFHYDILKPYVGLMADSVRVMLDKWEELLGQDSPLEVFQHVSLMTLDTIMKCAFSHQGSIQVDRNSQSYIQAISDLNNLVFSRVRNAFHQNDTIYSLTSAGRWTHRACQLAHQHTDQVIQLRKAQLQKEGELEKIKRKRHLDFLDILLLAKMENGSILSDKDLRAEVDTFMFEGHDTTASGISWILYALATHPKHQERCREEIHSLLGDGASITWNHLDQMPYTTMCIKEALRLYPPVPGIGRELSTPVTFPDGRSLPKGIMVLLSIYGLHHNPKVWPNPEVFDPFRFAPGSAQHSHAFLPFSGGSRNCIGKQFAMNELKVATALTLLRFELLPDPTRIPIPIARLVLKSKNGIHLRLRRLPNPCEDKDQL
Method: as §1, §2, §3, §4, §5

| SMILES | IC50 (human CYP4F2) | IC50 (human CYP4A11) |
| --- | --- | --- |
| NC(=O)COc1ccc(C(=O)N2CCC[C@@H](COc3ccc(-c4ccn[nH]4)nc3)C2)cc1 [Example 3-25] | 110 nM | 560 nM |
| NC(=O)COc1ccccc1C(=O)N1CCC[C@@H](COc2ccc(-c3ccn[nH]3)nc2)C1 [Example 3-26] | 9200 nM | 1200 nM |
| O=C(c1cc(CO)ccn1)N1CCC[C@@H](COc2ccc(-c3ccn[nH]3)nc2)C1 [Example 3-27] | 700 nM | 310 nM |
| O=C(Cn1ccccc1=O)N1CCC[C@@H](COc2ccc(-c3ccn[nH]3)nc2)C1 [Example 3-28] | 3200 nM | 2400 nM |
| O=C(COc1ccccc1)N1CCC[C@@H](COc2ccc(-c3ccn[nH]3)nc2)C1 [Example 3-29] | 50 nM | 79 nM |
| O=C(CS(=O)(=O)c1ccccc1)N1CCC[C@@H](COc2ccc(-c3ccn[nH]3)nc2)C1 [Example 3-30] | 250 nM | 110 nM |
| O=C(CCCOc1ccccc1)N1CCC[C@@H](COc2ccc(-c3ccn[nH]3)nc2)C1 [Example 3-31] | 4.9 nM | 43 nM |
| O=C(CC1CCCCC1)N1CCC[C@@H](COc2ccc(-c3ccn[nH]3)nc2)C1 [Example 3-32] | 15 nM | 460 nM |
| O=C(CC1CCOCC1)N1CCC[C@@H](COc2ccc(-c3ccn[nH]3)nc2)C1 [Example 3-33] | 220 nM | 2500 nM |
| NC(=O)C1(C(=O)N2CCC[C@@H](COc3ccc(-c4ccn[nH]4)nc3)C2)CC1 [Example 3-34] | 45000 nM | 770 nM |
| CC(C)(O)CC(=O)N1CCC[C@@H](COc2ccc(-c3ccn[nH]3)nc2)C1 [Example 3-35] | 790 nM | 1300 nM |
| O=C(CCS(=O)(=O)C(F)(F)F)N1CCC[C@@H](COc2ccc(-c3ccn[nH]3)nc2)C1 [Example 3-36] | 90 nM | 710 nM |
| O=C(CCC1CCCCC1)N1CCC[C@@H](COc2ccc(-c3ccn[nH]3)nc2)C1 [Example 3-37] | 8.3 nM | 290 nM |
| O=C(CCN1CCCS1(=O)=O)N1CCC[C@@H](COc2ccc(-c3ccn[nH]3)nc2)C1 [Example 3-38] | 380 nM | 1800 nM |
| O=C(CN1CCCOC1=O)N1CCC[C@@H](COc2ccc(-c3ccn[nH]3)nc2)C1 [Example 3-39] | 3500 nM | 3400 nM |
| CN(CC(=O)N1CCC[C@@H](COc2ccc(-c3ccn[nH]3)nc2)C1)C(=O)OC(C)(C)C [Example 3-40] | 370 nM | 930 nM |
| CCCCNC(=O)NCC(=O)N1CCC[C@@H](COc2ccc(-c3ccn[nH]3)nc2)C1 [Example 3-41] | 180 nM | 230 nM |
| CC(=O)N(C)CCC(=O)N1CCC[C@@H](COc2ccc(-c3ccn[nH]3)nc2)C1 [Example 3-42] | 900 nM | 1800 nM |
| CC(=O)NCCCC(=O)N1CCC[C@@H](COc2ccc(-c3ccn[nH]3)nc2)C1 [Example 3-43] | 570 nM | 720 nM |
| CC(C)(C)OC(=O)NCCCC(=O)N1CCC[C@@H](COc2ccc(-c3ccn[nH]3)nc2)C1 [Example 3-44] | 18 nM | 100 nM |
| O=C(NCCC(=O)N1CCC[C@@H](COc2ccc(-c3ccn[nH]3)nc2)C1)c1ccccc1 [Example 3-45] | 24 nM | 70 nM |
| CC(C)(C)OC(=O)N1CC(C(=O)N2CCC[C@@H](COc3ccc(-c4ccn[nH]4)nc3)C2)C1 [Example 3-46] | 23 nM | 290 nM |

| SMILES | IC50 (human CYP4F2) | IC50 (human CYP4A11) |
| --- | --- | --- |
| CC(C)(C)OC(=O)N1CC[C@H]1C(=O)N1CCC[C@@H](COc2ccc(-c3ccn[nH]3)nc2)C1 [Example 3-47] | 530 nM | 2100 nM |
| CC(=O)N1CCC(CCOc2ccc(-c3ccn[nH]3)nc2)CC1 [Example 4-1, 1-[4-(2-{[6-(1H-Pyrazol-5-yl)pyridin-3-yl]oxy}ethyl)piperidin-1-yl]ethan-1-one] | 120 nM | 550 nM |
| CC(C)C(=O)N1CCC(CCOc2ccc(-c3ccn[nH]3)nc2)CC1 [Example 4-2] | 50 nM | 380 nM |
| O=C(c1ccccc1)N1CCC(CCOc2ccc(-c3ccn[nH]3)nc2)CC1 [Example 4-3] | 210 nM | 270 nM |
| CC(CO)(CO)C(=O)N1CCC[C@@H](COc2ccc(-c3ccn[nH]3)nc2)C1 [Example 4-4] | 4500 nM | 310 nM |
| O=C(NCCC(=O)N1CCC[C@@H](COc2ccc(-c3ccn[nH]3)nc2)C1)C1CCOCC1 [Example 4-5] | 93 nM | 370 nM |
| O=C(CC1CCOCC1)NCCC(=O)N1CCC[C@@H](COc2ccc(-c3ccn[nH]3)nc2)C1 [Example 4-6] | 77 nM | 340 nM |
| CC(C)(O)CC(=O)NCCC(=O)N1CCC[C@@H](COc2ccc(-c3ccn[nH]3)nc2)C1 [Example 4-7] | 230 nM | 380 nM |
| O=C(NCCC(=O)N1CCC[C@@H](COc2ccc(-c3ccn[nH]3)nc2)C1)C1CCC1 [Example 4-8] | 43 nM | 91 nM |
| O=C(NCCC(=O)N1CCC[C@@H](COc2ccc(-c3ccn[nH]3)nc2)C1)C1CC(F)(F)C1 [Example 4-9] | 16 nM | 97 nM |
| O=C(NCCC(=O)N1CCC[C@@H](COc2ccc(-c3ccn[nH]3)nc2)C1)C1CCCC1 [Example 4-10] | 20 nM | 56 nM |
| CC(C)NC(=O)N1CCC(COc2ccc(-c3ccn[nH]3)nc2)CC1 [Example 5-1, N-(Propan-2-yl)-4-({[6-(1H-pyrazol-5-yl)pyridin-3-yl]oxy}methyl)piperidin-1-carboxamide] | 170 nM | 1200 nM |
| CC(C)NC(=O)N1CCC[C@@H](COc2ccc(-c3ccn[nH]3)nc2)C1 [Example 5-2] | 450 nM | 510 nM |
| CC(C)NC(=O)N1CCC[C@H](COc2ccc(-c3ccn[nH]3)nc2)C1 [Example 5-3] | 190 nM | 1200 nM |
| CN(C)C(=O)N1CCC(COc2ccc(-c3ccn[nH]3)nc2)CC1 [Example 6-1, N,N-Dimethyl-4-({[6-(1H-pyrazol-5-yl)pyridin-3-yl]oxy}methyl)piperidin-1-carboxamide] | 19 nM | 640 nM |
| CNC(=O)N1CCC[C@@H](COc2ccc(-c3ccn[nH]3)nc2)C1 [Example 6-3] | 570 nM | 450 nM |
| CNC(=O)N1CCC[C@H](COc2ccc(-c3ccn[nH]3)nc2)C1 [Example 6-4] | 110 nM | 1100 nM |
| O=C(N1CCC(COc2ccc(-c3ccn[nH]3)nc2)CC1)N1CCCS1(=O)=O [Example 6-5] | 720 nM | 2000 nM |
| O=C(N1CCC1)N1CCC(COc2ccc(-c3ccn[nH]3)nc2)CC1 [Example 7-1, (Azetidin-1-yl)[4-({[6-(1H-pyrazol-5-yl)pyridin-3-yl]oxy}methyl)piperidin-1-yl]methanone] | 22 nM | 790 nM |
| O=C(N1CCC(COc2ccc(-c3ccn[nH]3)nc2)CC1)N1CC(F)C1 [Example 7-2] | 29 nM | 1100 nM |
| O=C(NC1CC1)N1CCC(COc2ccc(-c3ccn[nH]3)nc2)CC1 [Example 8-1, N-Cyclopropyl-4-({[6-(1H-pyrazol-5-yl)pyridin-3-yl]oxy}methyl)piperidin-1-carboxamide] | 110 nM | 1500 nM |
| CN(C(=O)N1CCC(COc2ccc(-c3ccn[nH]3)nc2)CC1)C1CC1 [Example 8-2, N-Cyclopropyl-N-methyl-4-({[6-(1H-pyrazol-5-yl)pyridin-3-yl]oxy}methyl)piperidin-1-carboxamide] | 90 nM | 930 nM |
